Laboratory results as given in PMC9737772, “Synthesis and Anti-Inflammatory Activity of 1-Methylhydantoin Cinnamoyl Imides” (Molecules, 2022).

Assays:
[1] = tested on: xylene-induced ear edema in mice; design: method as in PMID 31247960, doi:10.2174/157018012800673092; conditions: previous study; cited from earlier work
[2] = tested on: TNF-α secretion in RAW264.7 cells induced by LPS; assay: TNF-α content in supernatant of LPS-induced RAW264.7 cells (ELISA); format: cell-based, mouse; conditions: 20 μM, LPS 1 ug/mL, 24 h, RAW264.7, vs model group
Experimental: Tumor necrosis factor-α (TNF-α) is a pleiotropic proinflammatory cytokine, known for its proinflammatory activity. To explore the inhibitory effects of five compounds on TNF-α, ELISA was used to determine the content of inflammatory factor TNF-α in the supernatant of RAW264.7 cells stimulated by LPS. RAW264.7 cells secreted a large amount of inflammatory-factor TNF-α 24 h after LPS (1 ug/mL) induction.
(§1) RAW264.7 mouse macrophages were purchased from Zhongqiao Xinzhou and cultured in DMEM supplemented with 10% fetal bovine serum (FBS) and 1% penicillin/streptomycin in a 37 °C, 5% CO2 incubator. The cells were passaged every two days to maintain the monolayer cell state.
(§2) The RAW264.7 cells in the logarithmic growth phase were seeded in a 24-well plate and placed in a 37 °C, 5% CO2 constant temperature incubator for culture. After 24 h, the culture medium was discarded. The blank group was added with 10% FBS DMEM 1 mL. The group was added with a medium containing 1 ug/mL LPS, and the experimental group was added with LPS and different concentrations of the target compound to make the final volume 1 mL. After 24 h of culture, the cell supernatant was taken and stored in a refrigerator at −20 °C for later use. The Griess kit was used to determine the concentration of NO in the supernatant, and a double antibody sandwich ELISA kit was used to detect TNF-α and IL-1β.

[3] = tested on: IL-1β secretion in RAW264.7 cells induced by LPS; assay: IL-1β content in supernatant of LPS-induced RAW264.7 cells (ELISA); format: cell-based, mouse; conditions: 20 μM, LPS, 24 h, RAW264.7, vs model group
Source text: Interleukin-1β (IL-1β) has strong proinflammatory activity and can induce the production of a variety of proinflammatory mediators, such as cytokines and chemokines. In this work, the ELISA method was used to determine the IL-1β content in the supernatant of RAW264.7 cells stimulated by LPS to evaluate the effects of five compounds on IL-1β secretion.
as §1, §2

[4] = Cytotoxicity determination by CCK-8; format: cell-based; conditions: mouse, RAW264.7 macrophage cells, RAW264.7 cells
Experimental: as §1
The CCK-8 kit was used to determine the cytotoxicity of the target compounds (1–5) to RAW264.7 cells. The well-growing cells were subcultured in a 96-well plate. After the cells adhered to the wall, the experimental group was added with a medium containing different concentrations of compounds to make the final concentration reach 5, 10, 20, 40, 80, 160 and 320 μmoL/L. The control group was added with a medium without compound, and a blank group without cells or compound was set at the same time. After culturing in a constant temperature incubator for a period, CCK-8 solution was added to produce yellow formazan product. The OD value was measured by the microplate reader at the detection wavelength of 450 nm, and the cell survival rate was calculated. The cell survival rate formula is as follows:(1) Cell Survival Rate %=ODe−ODb/ODc−ODb×100% where ODe was the OD value of the experimental group, ODb was the OD value of the blank group, and ODc was the OD value of the control group.

[5] = tested on: xylene-induced ear edema in mice; assay: Xylene-induced ear edema in mice; format: in vivo, Kunming mice; conditions: for Degree of Edema: 30 μL xylene, 30 min, mean ± SD, n = 6; for Inhibition of ear swelling: xylene-induced ear edema
Experimental: To evaluate the differences in anti-inflammatory effects of the five compounds, the in vivo anti-inflammatory experiment was conducted based on the acute inflammation model of ear swelling induced by xylene. Under the inflammatory effect of 30 μL of xylene, the degree of ear swelling in the blank group and each experimental group was different. […] With an increase in dose the degree of ear swelling decreased, and the effect of ear swelling inhibition was more significant at high dose (100 mg/kg). Under the action of drugs, the five target compounds (1–5) have significant inhibitory effects on ear swelling (Figure 6).
Adult male Kunming mice (18–20 g) were bought from Liaoning Changsheng Biotechnology Co., Ltd. (Shenyang, China, License No. SCXK (Liao) 2015-0001). The breeding is carried out under standard conditions without pathogens (constant room temperature 20–22 °C, 55 ± 5% humidity, 12 h light–dark cycle and free access to food and water). The research protocol has been approved by the Animal Experiment Ethics Committee of the School of Pharmacy of Jilin University (20190048). All experimental operations follow the principles of laboratory animal care, and all animal experiments are conducted in accordance with the Guide for the Care and Use of Laboratory Animals (released by the National Research Council).
In this experiment, Kunming mice were randomly divided into two groups. One group was given 5% sodium carboxymethyl cellulose solution as the blank group, and the other group was given different concentrations of the target compound as the experimental group (high, medium and low doses); continuous intragastric administration was two days and the volume of intragastric administration was 0.2 mL. One hour after the last administration, 30 μL of xylene was evenly smeared on both sides of the mouse’s right ear. After 30 min, the mouse’s right ear was obviously red and swollen and the capillary congestion was severe. Cervical vertebrae were dislocated and sacrificed. The ears on both sides were quickly cut off, an 8 mm ear punch was used to punch holes at the same position on the ears on both sides and they were immediately weighed to calculate the weight difference.
The formula for the difference in ear weight is as follows:(2) D=Wr−Wl where Wr was the weight of the right ear and Wl was the weight of the left ear.
The formula for the inhibition rate of ear swelling is as follows:(3) Inhibition %=Dc−Dt/Dc×100% where Dc was the extent of ear edema of the control group and Dt was the extent of ear edema of the treatment group.

[6] = 25 mg/kg intragastric for two days
[7] = 50 mg/kg intragastric for two days
[8] = 100 mg/kg (high dose) intragastric
[9] = 100 mg/kg intragastric for two days

SMILES | effect on ear edema in mice caused by xylene [1] | inhibition of TNF-α secretion [2] | inhibition of IL-1β secretion [3] | melting point [°C] | CC50 [4] [µM] | Degree of Edema [5, 6] [mg] | Inhibition of ear swelling ([5]; 25 mg/kg intragastric) [%] | Degree of Edema [5, 7] [mg] | Inhibition of ear swelling ([5]; 50 mg/kg intragastric) [%] | Inhibition of ear swelling [5, 8] [%] | Degree of Edema [5, 9] [mg]
CN1CC(=O)NC1=O [MHD, 1-Methylhydantoin] | can reduce ear edema in mice caused by xylene | – | – | – | – | – | – | – | – | – | –
CN1CC(=O)N(C(=O)C=Cc2ccccc2)C1=O [Compound 1, 3-cinnamoyl-1-methylimidazolidine-2,4-dione] | – | no obvious inhibitory effect on TNF-α | no obvious inhibitory effect on IL-1β | 140.6 to 141.5 | 264 | 9.84 ± 0.72 | 19.67 | 8.47 ± 0.64 | 30.86 | 44.16 | 6.84 ± 0.61
COc1cc(/C=C/C(=O)N2C(=O)CN(C)C2=O)ccc1OC(C)=O [Compound 5, (E)-2-methoxy-4-(3-(3-methyl-2,5-dioxoimidazolidin-1-yl)-3-oxoprop-1-en-1-yl)phenyl acetate] | – | no obvious inhibitory effect on TNF-α | no obvious inhibitory effect on IL-1β | 148.3 to 149.8 | 232 | 10.46 ± 0.64 | 14.61 | 7.95 ± 0.71 | 35.10 | 52.08 | 5.87 ± 0.75
CN1CC(=O)N(C(=O)/C=C/c2ccc3c(c2)OCO3)C1=O [Compound 3, (E)-3-(3-(benzo[d][1,3]dioxol-5-yl)acryloyl)-1-methylimidazolidine-2,4-dione] | – | no obvious inhibitory effect on TNF-α | no obvious inhibitory effect on IL-1β | 164.8 to 166.1 | 184 | 9.41 ± 1.37 | 23.18 | 9.05 ± 0.84 | 26.12 | 33.06 | 8.20 ± 0.27
